Assay results published in article PMC12209990, “Effect of Cytochrome P450 3A Inhibition and Induction by Itraconazole and Rifampin on Tazemetostat Pharmacokinetics in Patients With Advanced Malignancies” (Clinical Pharmacology in Drug Development, 2025).
Like-named read-outs stand apart in the source and are kept apart here. Marks after values point to notes of the source that are not given here.

Assay: Phase I DDI study Part 1: tazemetostat plasma PK alone and with itraconazole (noncompartmental analysis)
Format: in vivo, human
Conditions: Part 1; for RacAUC (AUC0‐12h accumulation ratio), geoLSM (90% CI) / RacCmax (Cmax accumulation ratio), geoLSM (90% CI): tazemetostat 400 mg alone, Day 15 versus Day 1; for AUC / AUC(0-t) / Cmax / half-life / Tmax: human; for Tmax: read-out: tmax, median (range)
From the text: This was a Phase I, multicenter, open‐label, 2‐part study encompassing a fixed‐sequence design that aimed to characterize the PK of tazemetostat when administered as single and twice‐daily oral doses alone or in combination with either itraconazole (Part 1) or rifampin (Part 2). Secondary objectives were to evaluate the safety profile of tazemetostat when coadministered with either itraconazole (Part 1) or rifampin (Part 2).
Part 1 of the study evaluated the DDI between tazemetostat and itraconazole. On the mornings of Days 1 and 15, patients received a single dose of tazemetostat 400 mg orally. On Days 3‐14, patients received tazemetostat 400 mg twice daily (morning and evening). On Days 18‐20, patients received itraconazole 200 mg orally once daily in the morning. On Days 21‐35, tazemetostat 400 mg twice daily was coadministered in the morning with a single dose of itraconazole 200 mg. On Day 36, patients received a single dose of tazemetostat 400 mg coadministered in the morning with a single dose of itraconazole 200 mg. On Days 37 and 38, patients received a single dose of itraconazole 200 mg (Figure 1A). Throughout Part 1, administration of itraconazole occurred 1 hour after a meal.
In Part 1, plasma concentrations of tazemetostat following tazemetostat dosing on Days 1, 15, 21, and 36 were quantified for PK analyses before dosing (0 hour), and at 0.5, 1, 1.5, 2, 4, 6, 8, 12, 24 (Days 21‐22), 36, 48 (Days 1‐3), and up to 72 hours after dosing (Days 15‐18 and Days 36‐39).
Plasma concentrations of tazemetostat, over the ranges of 1.00‐2000 ng/mL, were quantified by a fully validated liquid chromatography with tandem mass spectrometric detection analytical method. Samples that had no detectable peak or had the calculated concentration <1.00 ng/mL were reported as below the lower limit of quantification. Tazemetostat analysis consisted of protein precipitation extraction and separation using mobile phases of 100 mM ammonium formate/water (1:9 v/v) (mobile phase A) and 100 mM ammonium formate/acetonitrile (1:9 v/v) (mobile phase B). Detection was achieved using an API‐5500 mass spectrometer (AB Sciex) using electrospray ionization (positive‐ion mode) in the multiple reaction monitoring mode. The multiple reaction monitoring mode m/z transitions monitored were […] for tazemetostat and the dwell time was set at 300 milliseconds.
Plasma concentration‐time data for tazemetostat were analyzed by noncompartmental analysis using the validated software program Phoenix WinNonlin Professional Version 8.3 (Certara Inc., Mountain View, CA).

[1] = single dose with itraconazole vs alone, Day 21 versus Day 1
[2] = single dose with itraconazole vs alone, Day 21 versus Day 1, listed as tazemetostat
[3] = steady state with itraconazole vs alone, Day 36 versus Day 15
[4] = steady state with itraconazole vs alone, Day 36 versus Day 15, listed as tazemetostat

For `CCN(c1cc(-c2ccc(CN3CCOCC3)cc2)cc(C(=O)NCc2c(C)cc(C)[nH]c2=O)c1C)C1CCOCC1` [Tazemetostat], the “AUC0‐12h ratio, geoLSM (90% CI)” value [1] was 3.12 (2.44‐3.99) ^b, the “Cmax ratio, geoLSM (90% CI)” value [1] was 2.00 (1.60‐2.48) ^b and the “AUC0‐12h ratio, geoLSM (90% CI)” value [2] was 3.12. The “Cmax ratio, geoLSM (90% CI)” value [2] was 2.00, the “AUC0‐12h ratio, geoLSM (90% CI)” value [3] was 2.47 (2.02‐3.02) ^c and the “Cmax ratio, geoLSM (90% CI)” value [3] was 1.86 (1.49‐2.31) ^c. The “AUC0‐12h ratio, geoLSM (90% CI)” value [4] was 2.47, the “Cmax ratio, geoLSM (90% CI)” value [4] was 1.86 and the “RacAUC (AUC0‐12h accumulation ratio), geoLSM (90% CI)” value was 0.842 (0.726‐0.976) ^e. The “RacCmax (Cmax accumulation ratio), geoLSM (90% CI)” value was 0.771 (0.662‐0.897) ^e, the “RacAUC (AUC0‐12h accumulation ratio), geoLSM (90% CI)” value (listed as tazemetostat) was 0.842 and the “RacCmax (Cmax accumulation ratio), geoLSM (90% CI)” value (listed as tazemetostat) was 0.771. For the same compound, the “AUC0‐12 h, GeoMean (CV%)” value (tazemetostat 400 mg multiple dosing with itraconazole 200 mg once daily, Day 36, plasma) was 4530 (64.5) ng•h/mL, the “t1/2, GeoMean (CV%)” value (tazemetostat 400 mg single dose with itraconazole 200 mg once daily, Day 21, plasma, estimated over a 12‐hour dosing interval) was 2.86 (28.9) ^a hour and the AUC (plasma, oral, 400 mg, tazemetostat 400 mg twice daily alone, multiple dosing, Day 15, plasma, read-out: AUC0‐12 h, GeoMean (CV%)) was 1830 ng·h/mL. For the same compound, the AUC (plasma, oral, 400 mg, tazemetostat 400 mg twice daily alone, multiple dosing, Day 15, plasma, read-out: AUC0‐12 h, mean (SD)) was 1960 ng·h/mL, the AUC(0-t) (plasma, oral, 400 mg, tazemetostat 400 mg twice daily alone, multiple dosing, Day 15, plasma, read-out: AUClast, GeoMean (CV%)) was 2200 ng·h/mL and the AUC(0-t) (plasma, oral, 400 mg, tazemetostat 400 mg twice daily alone, multiple dosing, Day 15, plasma, read-out: AUClast, mean (SD)) was 2340 ng·h/mL. For the same compound, the Cmax (plasma, oral, 400 mg, tazemetostat 400 mg twice daily alone, multiple dosing, Day 15, plasma, read-out: Cmax, GeoMean (CV%)) was 543 ng/mL, the Cmax (plasma, oral, 400 mg, tazemetostat 400 mg twice daily alone, multiple dosing, Day 15, plasma, read-out: Cmax, mean (SD)) was 643 ng/mL and the half-life (plasma, oral, 400 mg, tazemetostat 400 mg twice daily alone, multiple dosing, Day 15, plasma, read-out: t1/2, GeoMean (CV%) (converted)) was 8.01 h. It also gave a half-life (plasma, oral, 400 mg, tazemetostat 400 mg twice daily alone, multiple dosing, Day 15, plasma, read-out: t1/2, mean (SD) (converted)) of 8.62 h, a Tmax (plasma, oral, 400 mg, tazemetostat 400 mg twice daily alone, multiple dosing, Day 15, plasma) of 1.27 h and an AUC (plasma, oral, tazemetostat 400 mg multiple dosing with itraconazole 200 mg once daily, Day 36, plasma, read-out: AUC0‐12 h, mean (SD)) of 5160 ng·h/mL. For the same compound, the AUC(0-t) (plasma, oral, tazemetostat 400 mg multiple dosing with itraconazole 200 mg once daily, Day 36, plasma, read-out: AUClast, GeoMean (CV%)) was 5750 ng·h/mL, the AUC(0-t) (plasma, oral, tazemetostat 400 mg multiple dosing with itraconazole 200 mg once daily, Day 36, plasma, read-out: AUClast, mean (SD)) was 6490 ng·h/mL and the Cmax (plasma, oral, tazemetostat 400 mg multiple dosing with itraconazole 200 mg once daily, Day 36, plasma, read-out: Cmax, GeoMean (CV%)) was 1010 ng/mL. It also gave a Cmax (plasma, oral, tazemetostat 400 mg multiple dosing with itraconazole 200 mg once daily, Day 36, plasma, read-out: Cmax, mean (SD)) of 1190 ng/mL, a half-life (plasma, oral, tazemetostat 400 mg multiple dosing with itraconazole 200 mg once daily, Day 36, plasma, read-out: t1/2, GeoMean (CV%) (converted)) of 11.9 h and a half-life (plasma, oral, tazemetostat 400 mg multiple dosing with itraconazole 200 mg once daily, Day 36, plasma, read-out: t1/2, mean (SD) (converted)) of 12.9 h. For the same compound, the Tmax (plasma, oral, tazemetostat 400 mg multiple dosing with itraconazole 200 mg once daily, Day 36, plasma) was 1.49 h, the half-life (plasma, oral, tazemetostat 400 mg single dose with itraconazole 200 mg once daily, Day 21, plasma, estimated over a 12‐hour dosing interval, read-out: t1/2, mean (SD) (converted)) was 2.95 h and the AUC (plasma, oral, tazemetostat 400 mg single dose with itraconazole 200 mg once daily, Day 21, plasma, read-out: AUC0‐12 h, GeoMean (CV%)) was 6790 ng·h/mL. For the same compound, the AUC (plasma, oral, tazemetostat 400 mg single dose with itraconazole 200 mg once daily, Day 21, plasma, read-out: AUC0‐12 h, mean (SD)) was 8000 ng·h/mL, the AUC(0-t) (plasma, oral, tazemetostat 400 mg single dose with itraconazole 200 mg once daily, Day 21, plasma, read-out: AUClast, GeoMean (CV%)) was 6720 ng·h/mL and the AUC(0-t) (plasma, oral, tazemetostat 400 mg single dose with itraconazole 200 mg once daily, Day 21, plasma, read-out: AUClast, mean (SD)) was 7930 ng·h/mL. It also gave a Cmax (plasma, oral, tazemetostat 400 mg single dose with itraconazole 200 mg once daily, Day 21, plasma, read-out: Cmax, GeoMean (CV%)) of 1400 ng/mL, a Cmax (plasma, oral, tazemetostat 400 mg single dose with itraconazole 200 mg once daily, Day 21, plasma, read-out: Cmax, mean (SD)) of 1640 ng/mL and a Tmax (plasma, oral, tazemetostat 400 mg single dose with itraconazole 200 mg once daily, Day 21, plasma) of 1.53 h. The AUC (plasma, po, 400 mg, tazemetostat 400 mg oral single dose alone, Day 1, plasma, read-out: AUC0‐12 h, GeoMean (CV%)) was 2180 ng·h/mL, the AUC (plasma, po, 400 mg, tazemetostat 400 mg oral single dose alone, Day 1, plasma, read-out: AUC0‐12 h, mean (SD)) was 2460 ng·h/mL and the AUC(0-t) (plasma, po, 400 mg, tazemetostat 400 mg oral single dose alone, Day 1, plasma, read-out: AUClast, GeoMean (CV%)) was 2640 ng·h/mL. It also gave an AUC(0-t) (plasma, po, 400 mg, tazemetostat 400 mg oral single dose alone, Day 1, plasma, read-out: AUClast, mean (SD)) of 3250 ng·h/mL and a Cmax (plasma, po, 400 mg, tazemetostat 400 mg oral single dose alone, Day 1, plasma, read-out: Cmax, GeoMean (CV%)) of 704 ng/mL.
